Reference: ChEMBL document CHEMBL1133987, “Broad spectrum antiprotozoal agents that inhibit histone deacetylase: structure-activity relationships of apicidin. Part 1” (Bioorg Med Chem Lett, 2001)
Converted amounts (≈) assume the structure as drawn.

Tests used:
[1] = test system: Eimeria tenella; experiment: Antiprotozoal activity (functional assay) using […] bovine kidney (MDBK) host cells infected with Eimeria tenella
[2] = test system: Plasmodium falciparum; experiment: In vitro antiprotozoal activity against Plasmodium falciparum 3D7 infected erythrocytes […]; format: functional, organism-based
[3] = target: Histone deacetylase; experiment: Inhibitory activity against histone deacetylase (HDAC) derived from partially purified extracts of human HeLa cells
[4] = test system: HeLa; experiment: Concentration for 50% inhibition of cell growth of human HeLa cells or foreskin fibroblasts in In vitro anti-proliferative functional assay
[5] = target: Histone deacetylase; experiment: Inhibitory activity against histone deacetylase (HDAC) derived from partially purified extracts of mammalian HeLa cells; design: species or system Homo sapiens

Structure (SMILES): CC[C@H](C)[C@@H]1NC(=O)[C@H](Cc2cn(OC)c3ccccc23)NC(=O)[C@H](CCCCCC(=O)C(C)C)NC(=O)[C@H]2CCCCN2CC1=O
- MIC [1]: 0.75 µg/mL (≈ 1.15 µM)
- IC50 [2]: 0.5 µg/mL (≈ 0.767 µM)
- IC50 [3]: 235 nM

Structure (SMILES): CCC(CCCCC[C@@H]1NC(=O)[C@H]2CCCCN2CC(=O)[C@H]([C@@H](C)CC)NC(=O)[C@H](Cc2cn(OC)c3ccccc23)NC1=O)SC(C)=O (some centres not stated)
- MIC [1]: 0.25 µg/mL (≈ 0.358 µM)
- IC50 [2]: 0.59 µg/mL (≈ 0.845 µM)

Structure (SMILES): CC[C@H](C)[C@@H]1NC(=O)[C@H](Cc2cn(OC)c3ccccc23)NC(=O)[C@H](CCCCCCC(=O)O)NC(=O)[C@H]2CCCCN2CC1=O
- MIC [1]: > 1 µg/mL
- IC50 [2]: > 1 µg/mL
- IC50 [3]: 848 nM

Structure (SMILES): CC[C@H](C)[C@@H]1NC(=O)[C@H](Cc2cn(OC)c3ccccc23)NC(=O)[C@H](CCCCCCC(=O)OC)NC(=O)[C@H]2CCCCN2CC1=O
- MIC [1]: > 1 µg/mL
- IC50 [2]: 0.5 µg/mL (≈ 0.765 µM)
- IC50 [3]: 7 nM

Structure (SMILES): CCC(=O)CCCCC[C@@H]1NC(=O)[C@H]2CCCCN2CC(=O)[C@H]([C@@H](C)CC)/N=C(\S)[C@H](Cc2cn(OC)c3ccccc23)N=C1S
- AP50 [4]: 1000 ng/mL
- MIC [1]: 0.125 µg/mL (≈ 0.187 µM)
- IC50 [2]: 0.1 µg/mL (≈ 0.149 µM)

Structure (SMILES): CC[C@H](C)[C@@H]1NC(=O)[C@H](Cc2cn(OC)c3ccccc23)NC(=O)[C@H](CCCCCC(=O)C(C)O)NC(=O)[C@H]2CCCCN2CC1=O (some centres not stated)
- MIC [1]: 0.008 µg/mL (≈ 0.0122 µM)
- IC50 [2]: 0.022 µg/mL (≈ 0.0336 µM)
- IC50 [3]: 0.3 nM

Structure (SMILES): CC[C@H](C)[C@@H]1NC(=O)[C@H](Cc2cn(OC)c3ccccc23)NC(=O)[C@H](CCCCC(=O)O)NC(=O)[C@H]2CCCCN2CC1=O
- MIC [1]: > 1 µg/mL
- IC50 [3]: 282 nM

Structure (SMILES): CC[C@H](C)[C@@H]1NC(=O)[C@H](Cc2cn(OC)c3ccccc23)NC(=O)[C@H](CCCCCC(C)=O)NC(=O)[C@H]2CCCCN2CC1=O
- MIC [1]: 0.125 µg/mL (≈ 0.2 µM)
- IC50 [2]: 0.055 µg/mL (≈ 0.0882 µM)
- IC50 [3]: 2 nM

Structure (SMILES): CC[C@H](C)[C@@H]1NC(=O)[C@H](Cc2cn(OC)c3ccccc23)NC(=O)[C@H](CCCCCC(=O)C(C)F)NC(=O)[C@H]2CCCCN2CC1=O (some centres not stated)
- MIC [1]: 0.062 µg/mL (≈ 0.0945 µM)
- IC50 [2]: 0.028 µg/mL (≈ 0.0427 µM)
- IC50 [3]: 1 nM

Structure (SMILES): CCC(=O)C(=O)CCCC[C@@H]1NC(=O)[C@H]2CCCCN2CC(=O)[C@H]([C@@H](C)CC)NC(=O)[C@H](Cc2cn(OC)c3ccccc23)NC1=O
- MIC [1]: 0.313 µg/mL (≈ 0.48 µM)
- IC50 [2]: 0.7 µg/mL (≈ 1.07 µM)
- IC50 [3]: 18 nM

Structure (SMILES): C=C(CC)CCCCC[C@@H]1NC(=O)[C@H]2CCCCN2CC(=O)[C@H]([C@@H](C)CC)NC(=O)[C@H](Cc2cn(OC)c3ccccc23)NC1=O
- MIC [1]: 1 µg/mL (≈ 1.57 µM)
- IC50 [2]: 1 µg/mL (≈ 1.57 µM)
- IC50 [3]: 1450 nM

Structure (SMILES): CCC(=O)CCCCC[C@@H]1NC(=O)[C@H]2CCCCN2CC(=O)[C@H]([C@@H](C)CC)NC(=O)[C@H](Cc2cn(OC)c3ccccc23)NC1=O
- MIC [1]: 0.094 µg/mL (≈ 0.147 µM)
- IC50 [2]: 0.058 µg/mL (≈ 0.0909 µM)
- IC50 [3]: 1 nM

Structure (SMILES): CCC(N)CCCCC[C@@H]1NC(=O)[C@H]2CCCCN2CC(=O)[C@H]([C@@H](C)CC)NC(=O)[C@H](Cc2cn(OC)c3ccccc23)NC1=O (some centres not stated)
- MIC [1]: > 1 µg/mL
- IC50 [2]: > 1 µg/mL
- IC50 [3]: 144 nM

Structure (SMILES): CCC(=O)CCCCC[C@@H]1/N=C(\S)[C@H]2CCCCN2CC(=O)[C@H]([C@@H](C)CC)/N=C(\S)[C@H](Cc2cn(OC)c3ccccc23)NC1=O
- AP50 [4]: 1000 ng/mL
- MIC [1]: 0.125 µg/mL (≈ 0.187 µM)
- IC50 [2]: 0.1 µg/mL (≈ 0.149 µM)

Structure (SMILES): CCC(=O)CCCCC[C@@H]1NC(=O)[C@H]2CCCCN2CC(=O)[C@H]([C@@H](C)CC)/N=C(\S)[C@H](Cc2cn(OC)c3ccccc23)NC1=O
- AP50 [4]: 1000 ng/mL
- MIC [1]: 0.125 µg/mL (≈ 0.191 µM)
- IC50 [2]: 0.1 µg/mL (≈ 0.153 µM)
- IC50 [5]: 85 nM

Structure (SMILES): CC[C@H](C)[C@@H]1NC(=O)[C@H](Cc2cn(OC)c3ccccc23)NC(=O)[C@H](CCCCCC(=O)c2ccccc2)NC(=O)[C@H]2CCCCN2CC1=O
- MIC [1]: 1 µg/mL (≈ 1.46 µM)
- IC50 [2]: 0.35 µg/mL (≈ 0.51 µM)
- IC50 [3]: 700 nM

Structure (SMILES): CC[C@H](C)[C@@H]1NC(=O)[C@H](Cc2cn(OC)c3ccccc23)NC(=O)[C@H](CCCCCC(=O)C(C)=O)NC(=O)[C@H]2CCCCN2CC1=O
- MIC [1]: 0.25 µg/mL (≈ 0.384 µM)
- IC50 [2]: 0.9 µg/mL (≈ 1.38 µM)
- IC50 [3]: 30 nM

Structure (SMILES): CC[C@H](C)[C@@H]1NC(=O)[C@H](Cc2cn(OC)c3ccccc23)NC(=O)[C@H](CCCCCC(=O)C2CO2)NC(=O)[C@H]2CCCCN2CC1=O (some centres not stated)
- MIC [1]: 0.003 µg/mL (≈ 0.0046 µM)
- IC50 [2]: < 0.015 µg/mL
- IC50 [3]: < 0.1 nM

Structure (SMILES): CCCCCCCC[C@@H]1NC(=O)[C@H]2CCCCN2CC(=O)[C@H]([C@@H](C)CC)NC(=O)[C@H](Cc2cn(OC)c3ccccc23)NC1=O
- MIC [1]: 1 µg/mL (≈ 1.6 µM)
- IC50 [2]: 0.61 µg/mL (≈ 0.978 µM)
- IC50 [3]: 61 nM

Structure (SMILES): CC[C@H](C)[C@@H]1NC(=O)[C@H](Cc2cn(OC)c3ccccc23)NC(=O)[C@H](CCCCCP(=O)([O-])O)NC(=O)[C@H]2CCCCN2CC1=O.[K+]
- MIC [1]: > 1 µg/mL
- IC50 [2]: > 1 µg/mL
- IC50 [3]: 180 nM

Structure (SMILES): CC[C@H](C)[C@@H]1NC(=O)[C@H](Cc2cn(OC)c3ccccc23)NC(=O)[C@H](CCCCCC=O)NC(=O)[C@H]2CCCCN2CC1=O
- MIC [1]: 1 µg/mL (≈ 1.64 µM)
- IC50 [2]: 0.5 µg/mL (≈ 0.82 µM)
- IC50 [3]: 6 nM

Structure (SMILES): CC[C@H](C)[C@@H]1NC(=O)[C@H](Cc2cn(OC)c3ccccc23)NC(=O)[C@H](CCCCSC(C)=O)NC(=O)[C@H]2CCCCN2CC1=O
- MIC [1]: > 1 µg/mL
- IC50 [2]: > 1 µg/mL
- IC50 [3]: 110 nM

Structure (SMILES): CC[C@H](C)[C@@H]1NC(=O)[C@H](Cc2cn(OC)c3ccccc23)NC(=O)[C@H](CCCCCC(=O)OC)NC(=O)[C@H]2CCCCN2CC1=O
- MIC [1]: > 1 µg/mL
- IC50 [2]: 0.21 µg/mL (≈ 0.328 µM)
- IC50 [3]: 0.4 nM

Structure (SMILES): CCC(=O)C(O)CCCC[C@@H]1NC(=O)[C@H]2CCCCN2CC(=O)[C@H]([C@@H](C)CC)NC(=O)[C@H](Cc2cn(OC)c3ccccc23)NC1=O (some centres not stated)
- MIC [1]: 1 µg/mL (≈ 1.53 µM)
- IC50 [3]: 39 nM

Structure (SMILES): CCC(=O)C(F)CCCC[C@@H]1NC(=O)[C@H]2CCCCN2CC(=O)[C@H]([C@@H](C)CC)NC(=O)[C@H](Cc2cn(OC)c3ccccc23)NC1=O (some centres not stated)
- MIC [1]: 0.313 µg/mL (≈ 0.477 µM)
- IC50 [2]: 0.7 µg/mL (≈ 1.07 µM)
- IC50 [3]: 110 nM

Structure (SMILES): CC[C@H](C)[C@@H]1NC(=O)[C@H](Cc2cn(OC)c3ccccc23)NC(=O)[C@H](CCCCCP(=O)(OC)OC)NC(=O)[C@H]2CCCCN2CC1=O
- MIC [1]: > 1 µg/mL
- IC50 [2]: 0.85 µg/mL (≈ 1.23 µM)
- IC50 [3]: 450 nM

Structure (SMILES): CC[C@H](C)[C@@H]1NC(=O)[C@H](Cc2cn(OC)c3ccccc23)NC(=O)[C@H](CCCCCC(=O)NO)NC(=O)[C@H]2CCCCN2CC1=O
- MIC [1]: > 0.5 µg/mL
- IC50 [2]: 0.00024 µg/mL (≈ 0.000375 µM)

Structure (SMILES): CCCC(=O)CCCCC[C@@H]1NC(=O)[C@H]2CCCCN2CC(=O)[C@H]([C@@H](C)CC)NC(=O)[C@H](Cc2cn(OC)c3ccccc23)NC1=O
- MIC [1]: 0.125 µg/mL (≈ 0.192 µM)
- IC50 [2]: 0.15 µg/mL (≈ 0.23 µM)
- IC50 [3]: 1 nM

Structure (SMILES): CC[C@H](C)[C@@H]1NC(=O)[C@H](Cc2cn(OC)c3ccccc23)NC(=O)[C@H](CCCCCC2(CC)CO2)NC(=O)[C@H]2CCCCN2CC1=O (some centres not stated)
- MIC [1]: > 1 µg/mL
- IC50 [2]: 1 µg/mL (≈ 1.53 µM)
- IC50 [3]: 60 nM

Structure (SMILES): CC[C@H](C)[C@@H]1NC(=O)[C@H](Cc2cn(OC)c3ccccc23)NC(=O)[C@H](CCCCCC(=O)O)NC(=O)[C@H]2CCCCN2CC1=O
- MIC [1]: 1 µg/mL (≈ 1.6 µM)
- IC50 [2]: > 1 µg/mL
- IC50 [3]: 15 nM

Structure (SMILES): CCC(=O)C1OC1CCC[C@@H]1NC(=O)[C@H]2CCCCN2CC(=O)[C@H]([C@@H](C)CC)NC(=O)[C@H](Cc2cn(OC)c3ccccc23)NC1=O (some centres not stated)
- MIC [1]: 0.15 µg/mL (≈ 0.23 µM)
- IC50 [2]: 0.35 µg/mL (≈ 0.537 µM)
- IC50 [3]: 5 nM

Structure (SMILES): CC[C@H](C)[C@@H]1NC(=O)[C@H](Cc2cn(OC)c3ccccc23)NC(=O)[C@H](CCCCCSC(C)=O)NC(=O)[C@H]2CCCCN2CC1=O
- MIC [1]: 1 µg/mL (≈ 1.52 µM)
- IC50 [2]: 0.9 µg/mL (≈ 1.37 µM)
- IC50 [3]: 3 nM

Structure (SMILES): CC[C@H](C)[C@@H]1NC(=O)[C@H](Cc2cn(OC)c3ccccc23)NC(=O)[C@H](CCCCC(=O)OC)NC(=O)[C@H]2CCCCN2CC1=O
- MIC [1]: > 1 µg/mL
- IC50 [2]: > 1 µg/mL
- IC50 [3]: 74 nM

Structure (SMILES): CC[C@H](C)[C@@H]1NC(=O)[C@H](Cc2cn(OC)c3ccccc23)NC(=O)[C@H](CCCCCSC)NC(=O)[C@H]2CCCCN2CC1=O
- MIC [1]: > 1 µg/mL
- IC50 [2]: > 1 µg/mL
- IC50 [3]: 326 nM

Structure (SMILES): CC[C@H](C)[C@@H]1NC(=O)[C@H](Cc2cn(OC)c3ccccc23)NC(=O)[C@H](CCCCNC(C)=O)NC(=O)[C@H]2CCCCN2CC1=O
- MIC [1]: > 1 µg/mL
- IC50 [2]: 1 µg/mL (≈ 1.6 µM)
- IC50 [3]: 2000 nM
